Laboratory results as given in ChEMBL document CHEMBL1132521, “Synthesis and hypoglycemic effect of chrysin derivatives” (Bioorg Med Chem Lett, 1999).

What was measured:
Mus musculus [1] = assay: In vivo hypoglycemic activity after administration (40 mg/kg) in mice on day 7 was determined; type: functional
Mus musculus [2] = assay: In vivo hypoglycemic activity after administration (40 mg/kg) in mice on day 0 was determined; type: functional
[3] = Ratio of hypoglycemic activity in mice was tested on day 7.; type: functional
Mus musculus [4] = assay: In vivo hypoglycemic activity after administration (50 mg/kg) in mice on day 7 was determined; type: functional
Mus musculus [5] = assay: In vivo hypoglycemic activity after administration (50 mg/kg) in mice on day 0 was determined; type: functional
Mus musculus [6] = assay: In vivo hypoglycemic activity after administration (45 mg/kg) in mice on day 0 was determined; type: functional
Mus musculus [7] = assay: In vivo hypoglycemic activity after administration (45 mg/kg) in mice on day 7 was determined; type: functional
Mus musculus [8] = assay: In vivo hypoglycemic activity after administration (43 mg/kg) in mice on day 7 was determined; type: functional
Mus musculus [9] = assay: In vivo hypoglycemic activity after administration (43 mg/kg) in mice on day 0 was determined; type: functional
Mus musculus [10] = assay: Abnormal symptoms was determined in mouse after oral administration of 500 mg/kg; - sign indicates abnormal symptoms in treated mouse; type: functional, organism-based; parameters: dose 500 mg/kg
Rattus norvegicus [11] = assay: Body weight was determined in rat after oral administration of 500 mg/kg on day 7; type: functional
Mus musculus [12] = assay: Daily food consumption was determined in mouse after oral administration of 100 mg/kg; type: functional
Mus musculus [13] = assay: Body weight was determined in mouse after oral administration of 20 mg/kg on day 7; type: functional
Rattus norvegicus [14] = assay: Lung weight was determined in rat after oral administration of 500 mg/kg; type: functional; parameters: unit not given beside the values
Rattus norvegicus [15] = assay: Daily food consumption was determined in rat after oral administration of 500 mg/kg; type: functional
Mus musculus [16] = assay: Body weight was determined in mouse after oral administration of 5 mg/kg on day 0; type: functional
Rattus norvegicus [17] = assay: Spleen weight was determined in rat after oral administration of 500 mg/kg; type: functional; parameters: unit not given beside the values
Rattus norvegicus [18] = assay: Daily water consumption was determined in rat after oral administration of 500 mg/kg; type: functional
Mus musculus [19] = assay: Body weight was determined in mouse after oral administration of 20 mg/kg on day 0; type: functional
Rattus norvegicus [20] = assay: Abnormal symptoms was determined in rat after oral administration of 500 mg/kg; - sign indicates abnormal symptoms in treated mouse; type: functional, organism-based; parameters: dose 500 mg/kg
Mus musculus [21] = assay: Daily water consumption was determined in mouse after oral administration of 500 mg/kg; type: functional
Mus musculus [22] = assay: Abnormal symptoms was determined in mouse after oral administration of 5 mg/kg; - sign indicates abnormal symptoms in treated mouse; type: functional, organism-based; parameters: dose 5 mg/kg
Mus musculus [23] = assay: Body weight was determined in mouse after oral administration of 100 mg/kg on day 7; type: functional
Mus musculus [24] = assay: Body weight was determined in mouse after oral administration of 100 mg/kg on day 0; type: functional
Mus musculus [25] = assay: Abnormal symptoms was determined in mouse after oral administration of 100 mg/kg; - sign indicates abnormal symptoms in treated mouse; type: functional, organism-based; parameters: dose 100 mg/kg
Mus musculus [26] = assay: Daily water consumption was determined in mouse after oral administration of 100 mg/kg; type: functional
Mus musculus [27] = assay: Body weight was determined in mouse after oral administration of 500 mg/kg on day 7; type: functional
Mus musculus [28] = assay: Body weight was determined in mouse after oral administration of 5 mg/kg on day 7; type: functional
Mus musculus [29] = assay: Daily food consumption was determined in mouse after oral administration of 500 mg/kg; type: functional
Mus musculus [30] = assay: Body weight was determined in mouse after oral administration of 500 mg/kg on day 0; type: functional
Mus musculus [31] = assay: Daily water consumption was determined in mouse after oral administration of 5 mg/kg; type: functional
Mus musculus [32] = assay: Daily food consumption was determined in mouse after oral administration of 20 mg/kg; type: functional
Mus musculus [33] = assay: Daily water consumption was determined in mouse after oral administration of 20 mg/kg; type: functional
Rattus norvegicus [34] = assay: Kidney weight was determined in rat after oral administration of 500 mg/kg; type: functional
Mus musculus [35] = assay: Daily food consumption was determined in mouse after oral administration of 5 mg/kg; type: functional
Rattus norvegicus [36] = assay: Body weight was determined in rat after oral administration of 500 mg/kg on day 0; type: functional
Mus musculus [37] = assay: Abnormal symptoms was determined in mouse after oral administration of 20 mg/kg; - sign indicates abnormal symptoms in treated mouse; type: functional, organism-based; parameters: dose 20 mg/kg
Rattus norvegicus [38] = assay: Liver weight was determined in rat after oral administration of 500 mg/kg; type: functional; parameters: unit not given beside the values

Structure (SMILES) | Ratio [3] | Blood glucose (Mus musculus [4]) | Blood glucose (Mus musculus [5]) | Activity (Mus musculus [10]) | Body weight (Rattus norvegicus [11]) | Food intake (Mus musculus [12]) | Body weight (Mus musculus [13]) | Organ weight (Rattus norvegicus [14]) | Food intake (Rattus norvegicus [15]) | Body weight (Mus musculus [16]) | Organ weight (Rattus norvegicus [17]) | Water consumption (Rattus norvegicus [18]) | Body weight (Mus musculus [19]) | Activity (Rattus norvegicus [20]) | Water consumption (Mus musculus [21]) | Activity (Mus musculus [22]) | Body weight (Mus musculus [23]) | Body weight (Mus musculus [24]) | Activity (Mus musculus [25]) | Water consumption (Mus musculus [26]) | other results
CC(=O)Oc1ccccc1C(=O)Oc1cc(O)c2c(=O)cc(-c3ccccc3)oc2c1 | 102.4 |  |  |  |  |  |  |  |  |  |  |  |  |  |  |  |  |  |  |  | Blood glucose (Mus musculus [1]): 500.9 mg/dL; Blood glucose (Mus musculus [2]): 489.3 mg/dL
COc1cc(O)c2c(=O)cc(-c3ccccc3)oc2c1 [TECHTOCHRYSIN] | 87.8 | 399.6 mg/dL | 455 mg/dL |  |  |  |  |  |  |  |  |  |  |  |  |  |  |  |  |  | 
CCOc1cc(OCC)c2c(=O)cc(-c3ccccc3)oc2c1 | 91.7 |  |  |  |  |  |  |  |  |  |  |  |  |  |  |  |  |  |  |  | Blood glucose (Mus musculus [6]): 436.6 mg/dL; Blood glucose (Mus musculus [7]): 400.5 mg/dL
CCCCOc1cc(OCCCC)c2c(=O)cc(-c3ccccc3)oc2c1 | 89.3 |  |  |  |  |  |  |  |  |  |  |  |  |  |  |  |  |  |  |  | Blood glucose (Mus musculus [8]): 405.7 mg/dL; Blood glucose (Mus musculus [9]): 454.4 mg/dL
O=C(/C=C/c1ccccc1)Oc1cc(O)c2c(=O)cc(-c3ccccc3)oc2c1 | 92.6 | 407.9 mg/dL | 440.6 mg/dL |  |  |  |  |  |  |  |  |  |  |  |  |  |  |  |  |  | 
Cc1ccc(C(=O)Oc2cc(O)c3c(=O)cc(-c4ccccc4)oc3c2)cc1 | 56.4 |  |  | abnormal symptoms in treated mouse | 302.5 | 50.78 g | 31.4 | 1.26 | 112.83 g | 25.1 | 0.66 | 216.83 mL | 24.7 | abnormal symptoms in treated mouse | 82.08 mL | abnormal symptoms in treated mouse | 31.6 | 25.2 | abnormal symptoms in treated mouse | 83.75 mL | Body weight (Mus musculus [27]): 31.2; Body weight (Mus musculus [28]): 32.2; Food intake (Mus musculus [29]): 49.86 g; Body weight (Mus musculus [30]): 24.8; Water consumption (Mus musculus [31]): 80.42 mL; Food intake (Mus musculus [32]): 50.6 g; Water consumption (Mus musculus [33]): 80.75 mL; Blood glucose (Mus musculus [1]): 261.8 mg/dL; Organ weight (Rattus norvegicus [34]): 0.98; Food intake (Mus musculus [35]): 49.35 g; Body weight (Rattus norvegicus [36]): 237.5; Activity (Mus musculus [37]): abnormal symptoms in treated mouse; Organ weight (Rattus norvegicus [38]): 9.6; Blood glucose (Mus musculus [2]): 464.3 mg/dL
CCCCCCCCOc1cc(O)c2c(=O)cc(-c3ccccc3)oc2c1 | 51.4 | 211.4 mg/dL | 411.2 mg/dL | abnormal symptoms in treated mouse | 290.8 | 51.41 g | 32.1 | 1.26 | 113.08 g | 23.8 | 0.69 | 205.91 mL | 25.5 | abnormal symptoms in treated mouse | 80.75 mL | abnormal symptoms in treated mouse | 31.6 | 24.8 | abnormal symptoms in treated mouse | 82.83 mL | Body weight (Mus musculus [27]): 30.1; Body weight (Mus musculus [28]): 30.8; Food intake (Mus musculus [29]): 50.6 g; Body weight (Mus musculus [30]): 24; Water consumption (Mus musculus [31]): 79.83 mL; Food intake (Mus musculus [32]): 52.57 g; Water consumption (Mus musculus [33]): 81.67 mL; Food intake (Mus musculus [35]): 51.28 g; Body weight (Rattus norvegicus [36]): 230.8; Activity (Mus musculus [37]): abnormal symptoms in treated mouse; Organ weight (Rattus norvegicus [38]): 9.96
CCCCOc1cc(O)c2c(=O)cc(-c3ccccc3)oc2c1 | 46.3 | 252.4 mg/dL | 545.6 mg/dL | abnormal symptoms in treated mouse | 293.3 | 50.53 | 30.6 | 1.22 | 113.58 | 24.9 | 0.71 | 197.16 mL | 23.8 | abnormal symptoms in treated mouse | 82.83 mL | abnormal symptoms in treated mouse | 31 | 23.5 | abnormal symptoms in treated mouse | 80.92 mL | Body weight (Mus musculus [27]): 31.3; Body weight (Mus musculus [28]): 32.7; Food intake (Mus musculus [29]): 50.4; Body weight (Mus musculus [30]): 24.3; Water consumption (Mus musculus [31]): 82.5 mL; Food intake (Mus musculus [32]): 52.81; Water consumption (Mus musculus [33]): 79.33 mL; Organ weight (Rattus norvegicus [34]): 1.04; Food intake (Mus musculus [35]): 51.91; Body weight (Rattus norvegicus [36]): 235; Activity (Mus musculus [37]): abnormal symptoms in treated mouse; Organ weight (Rattus norvegicus [38]): 10.74
